The record followed here is patent publication US20180008592A1, “TREATMENT OF UREMIC PRURITUS” (TREVI THERAPEUTICS, INC., priority 2016, published 2018).

Each structure is given as a SMILES string.

Data set [1] deals with renally impaired patients on hemodialysis with moderate or severe uremic pruritus. Nature of the data set: Randomized double-blind placebo-controlled trial: Worst Itching Intensity Numerical Rating Scale (NRS). Conditions: for Change from Baseline to the Evaluation Period NRS (mean SD): weeks 7 and 8, scale 0-10; for patients with ≧15% change from baseline to the Evaluation Period in the NRS: p=NS; for NRS, Change from Baseline to the Evaluation Period, mean (SD): severe pruritus subgroup (Baseline NRS ≧ 7), post-hoc. It counts as in vivo, human. The method, then: This clinical study was a parallel, double-blind, placebo-controlled trial in which renally impaired patients on hemodialysis with moderate or severe uremic pruritus were randomized in a 1:1:1 ratio to nalbuphine ER tablets to a target dose of 120 mg BID or 60 mg BID, or matching placebo tablets BID. Medications taken for treatment of pruritus (“antipruritic medications”) were not prohibited, but their use was recorded throughout the study. Use of skin emollients was also not restricted. A placebo comparator was chosen because there are no approved treatments for uremic pruritus in the United States or Europe or an established standard of care that could serve as an active control.
The primary objectives were to evaluate the effects on itching intensity using a Worst Itching Intensity Numerical Rating Scale (NRS, 0 [no itching]-10 [worst possible itching]) (FIG. 7) as well as safety and tolerability. The study was conducted at 46 United States investigative sites and 6 investigative sites in Romania and Poland. The Sponsor oversaw the conduct of the trial and an independent unblinded Data Safety Monitoring Board reviewed safety data approximately once a month during the conduct of the trial.
To be eligible, patients had to have been on hemodialysis for 3 months, have a Patient Assessed Disease Severity (PADS) category of “B” or “C”, and a mean of 6 Worst Itching Numerical Rating Scale Scores during the week prior to randomization ≧4.5 on an 11-point scale (0, “no itching” to 10, “worst possible itching”) with at least 2 scores ≧5.0.
The primary endpoint was the change from Baseline to the Evaluation Period (Study weeks 7 and 8) in the modified intent-to-treat population. Quality of life-related secondary endpoints included change from Day 1 to the Evaluation Period in itching-related quality of life (using the Skindex-10 (FIG. 8)) and itching-related sleep disruption (using the Itch Medical Outcomes Study [Itch MOS] (FIG. 9), SLP-9). The Hospital Anxiety and Depression Score (HADS) used as a general measure of anxiety and depression. All patient-reported outcomes measures were selected based on their prior validation in uremic pruritus patients specifically or in the dialysis population more generally.
Patients were analyzed by group to which they were randomized.
The primary and quality of life secondary endpoint analyses used a mixed model repeated measures ANCOVA with the main effects of treatment and site and baseline worst itch NRS score as the covariate. The model included time (i.e. Visit) as a factor variable and treatment*time (with placebo as the reference category) with an unstructured covariance structure for repeated measures. Data from all post-baseline visits were used to fit the model. For the primary endpoint, the baseline value was defined as the mean of worst itch daytime and nighttime NRS scores used for satisfying the protocol inclusion criterion #5 (mean worst itching NRS≧4.5 based on a total of 3 daytime and 3 nighttime measurements from 3 dialysis visits). For the secondary endpoints, the baseline value was based on a measurement taken on Study Day 1, prior to randomization. A pre-specified step-down procedure was used. The first comparison was of nalbuphine 120 mg BID dose vs. placebo. If the first comparison was significant at the p<0.05 level, then the comparison between the nalbuphine 60 mg BID dose vs. placebo would be conducted. Patients with a 15% or greater response in worst itch NRS were analyzed using a Cochran-Mantel-Haenszel (CMH) test. Analysis of the Itch MOS utilized the SLP-9 scoring algorithm.
In the first 2 weeks of treatment, patients were blindly force-titrated to their assigned target dose, with the patients in the active arms reaching a dose of 60 mg BID (NAL 60) after the first week and, for those in the high dose group, to 120 mg BID (NAL 120) after the second week. Study drug was administered in blister cards containing the labeled morning and evening doses for each day of the week. […]

Data set [2] concerns hemodialysis patients with uremic pruritus who completed the Example 2 study. The data set is described as follows: Phase 2/3 Open Label Extension Study (up to 24 weeks). It counts as in vivo, human. From the text: This clinical study was a Phase 2/3 Open Label Extension Study of the randomized, double-blind, 3-parallel arm, placebo controlled dose ranging study described in Example 2. All those subjects who were randomized, and then completed Example 2 study, were eligible to participate in the Extension Study.
The primary endpoint was a description of the overall incidence and nature of Treatment-Emergent AEs (TEAES) with the secondary endpoint a description of the incidence and nature of TEAEs during Treatment Weeks 4-24. Exploratory efficacy endpoints related to collecting data on the PRO instruments (NRS, Skindex-10, Itch MOS Sleep, HADS, PADS), the same instruments evaluated in Example 2.
Of the 373 patients that were randomized to the study of Example 2, 184 subjects both completed the study of Example 2 and enrolled into Extension Study. 167 subjects who enrolled into Extension Study entered the Treatment Period of the study and were exposed to nalbuphine HCl ER tablet administration and are the basis of the study safety population analysis. 17 subjects who were enrolled in the Extension were never dosed, they were categorized as screen failures and they are not part of the analysis.
Patients in Extension Study were titrated over a dose range of 30 mg QD to 120 mg BID based on tolerability and efficacy. The selected dose range was based on Example 2 study whereby patients were titrated from a 30 mg QD dose either to 60 mg BID or a 120 mg BID dose. The highest dose proposed was 120 mg BID (240 mg daily dose), and was well below the highest recommended daily treatment of 160 mg IV (equivalent to 960 mg oral) for the current marketed product.
The study duration for each patient was up to 26 weeks, with up to 24 weeks on study drug. The Extension Study consisted of a Treatment Period (that was followed by a Washout Safety Follow-up Period) and an Observation Period. Patients either entered directly into a drug Treatment Period (NRS >2) or a no-drug Observation Period (NRS ≦2) based on their reported NRS scores on the first Visit (Visit 1a). For up to 12 Extended Screening weeks, patients in the no-drug Observation Period could have also transitioned into the drug Treatment Period if their NRS increased to NRS >2. All patients entering the Treatment Period, whether immediately upon study entry or following a period of time in the Observation Period, were titrated to a dose ranging between 30 mg up to 120 mg BID, the highest dose tested in Example 2.
The total study duration for any individual patient was up to 26 weeks. […] For patients who entered the Treatment Period from the Observation Period, the total amount of time spent in the combined two periods of the study could not exceed 24 weeks.

Setting [3] is: safety population, titrated 30 mg QD to 120 mg BID, up to 24 weeks, most pronounced with baseline NRS ≧7.

For the compound `Cl.Oc1ccc2c3c1O[C@H]1[C@@H](O)CC[C@@]4(O)[C@@H](C2)N(CC2CCC2)CC[C@]314` [Nalbuphine, 17-(cyclobutylmethyl)-4,5α-epoxymorphinian-3,6α, 14-triol, hydrochloride], in data set [1] (60 mg BID), the “difference vs. placebo in worst itching NRS (primary endpoint)” value was “no significant difference”. In addition, the “Change from Baseline to the Evaluation Period NRS (mean SD)” value in data set [1] (60 mg BID ER tablets, N = 128, baseline NRS 6.9 (1.4)) is reported as −3.1 (2.4); in data set [1] (120 mg BID ER tablets, N = 120, baseline NRS 6.9 (1.5), hydrochloride), −3.5 (2.4). In addition, the “Difference in the Change from Baseline to the Evaluation Period (LSMEAN, SE) vs. placebo” value in data set [1] (60 mg BID, 95% CI (−0.84, 0.37), p = 0.441) is listed as −0.24 (0.31); in data set [1] (120 mg BID, 95% CI (−1.34, −0.13), p = 0.017), −0.73 (0.31). Moreover, the “patients with ≧15% change from baseline to the Evaluation Period in the NRS” value in data set [1] (60 mg BID) is on record as 80.5%; in data set [1] (120 mg BID), 84.5%. For the same compound, the “development of tolerance to the effect on itch” value in data set [1] (120 mg BID, 8-week treatment period) is reported as “no apparent development of tolerance”. In addition, the “reduction in itching intensity” value in data set [1] (120 mg BID, moderate and severe uremic pruritus) was 49%. In addition, the “NRS, Change from Baseline to the Evaluation Period, mean (SD)” value is on record as −3.4 (2.6) in data set [1] (60 mg BID, N = 61, baseline 8.0 (0.9)) and −4.5 in data set [1] (120 mg BID, N = 63, baseline 8.2 (0.8), p < 0.01). Moreover, in data set [1] (severe subgroup (Baseline NRS ≧7.0), 60 mg BID), the “improvement of itching intensity and Itch MOS compared with placebo” value is recorded as “Neither itching intensity nor Itch MOS improved significantly”. In addition, the “decrease of mean itching intensity” value in data set [1] (severe subgroup (Baseline NRS ≧7.0), 120 mg BID) came out at 55%. Moreover, in data set [1] (severe subgroup (Baseline NRS ≧7.0, n=179), 120 mg BID, baseline 8.2 (0.8), p=0.007 vs. placebo), the “absolute reduction of mean itching intensity (NRS)” value was 4.5 (2.5). The “Mean Skindex-10 by week” value in data set [2] (setting [3]) was “decreased from baseline to all measured time points”. In addition, in data set [2] (setting [3]), the “Mean worst itch NRS by week” value was “decreased from baseline to all measured time points”. For the same compound, in data set [2] (treatment period up to 24 weeks), the safety findings entry is “consistent with the known safety profile of nalbuphine”. Besides, the “tolerance to the anti-pruritic effects” value in data set [2] (up to 24 weeks) is reported as “do not develop a tolerance”.
